Experimental data reported in article PMC11237753, “Discovery of α-(1→6)-linked mannan structures resembling yeast N-glycan outer chains in Aspergillus fumigatus mycelium” (mSphere, 2024).

What was measured:
Mnn2 (AfMnn2) = biological target: T1, Mnn2 (AfMnn2) (Aspergillus fumigatus, UniProt B0YD06); test: reverse-phase HPLC of products; type: biochemical; details: acceptor 1.5 mM; 10 mM GDP-Man, 0.5 mM MnCl2, pH 6.8, 30 °C, 16 h
T1 construct: gene AFUB_093840; N-terminal 6xHis, transmembrane residues 1-30 removed (31-493), expressed in E. coli SHuffle T7 Express, about 53 kDa
T1 sequence (B0YD06 31-493): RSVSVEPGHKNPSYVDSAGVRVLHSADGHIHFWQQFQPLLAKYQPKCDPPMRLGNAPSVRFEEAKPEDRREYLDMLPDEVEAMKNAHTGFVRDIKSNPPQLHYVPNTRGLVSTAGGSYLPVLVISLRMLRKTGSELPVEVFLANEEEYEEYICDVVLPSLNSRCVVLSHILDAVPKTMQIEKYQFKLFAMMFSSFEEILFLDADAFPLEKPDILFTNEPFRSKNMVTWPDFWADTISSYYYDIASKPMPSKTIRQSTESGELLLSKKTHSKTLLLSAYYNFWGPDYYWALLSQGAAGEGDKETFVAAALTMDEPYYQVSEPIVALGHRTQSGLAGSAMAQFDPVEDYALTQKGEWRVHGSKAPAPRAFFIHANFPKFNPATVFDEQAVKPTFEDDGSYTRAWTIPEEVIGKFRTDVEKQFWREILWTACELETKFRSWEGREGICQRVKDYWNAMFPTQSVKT

Mnn5 (AfMnn5) = biological target: T2, Mnn5 (AfMnn5) (Aspergillus fumigatus, UniProt B0Y1T7); test: reverse-phase HPLC of products; type: biochemical; details: acceptor 1.5 mM; 10 mM GDP-Man, 0.5 mM MnCl2, pH 6.8, 30 °C, 16 h
T2 construct: gene AFUB_060800; N-terminal 6xHis, transmembrane residues 1-29 removed (30-492), expressed in E. coli SHuffle T7 Express, about 52 kDa
T2 sequence (B0Y1T7 30-492): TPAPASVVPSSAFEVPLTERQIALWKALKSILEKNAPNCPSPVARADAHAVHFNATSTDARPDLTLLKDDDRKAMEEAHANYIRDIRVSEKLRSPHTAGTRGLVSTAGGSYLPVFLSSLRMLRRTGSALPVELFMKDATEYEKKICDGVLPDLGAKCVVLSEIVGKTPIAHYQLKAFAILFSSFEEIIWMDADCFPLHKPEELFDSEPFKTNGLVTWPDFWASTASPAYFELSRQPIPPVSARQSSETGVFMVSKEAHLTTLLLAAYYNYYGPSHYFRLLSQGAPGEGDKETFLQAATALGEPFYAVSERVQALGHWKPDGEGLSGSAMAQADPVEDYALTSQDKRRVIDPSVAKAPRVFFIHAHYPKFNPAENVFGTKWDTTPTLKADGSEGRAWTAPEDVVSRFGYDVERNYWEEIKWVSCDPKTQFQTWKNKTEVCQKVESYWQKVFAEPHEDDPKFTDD

O=[N+]([O-])c1ccc(O[C@H]2O[C@H](CO)[C@@H](O)[C@H](O)[C@@H]2O)cc1 [p-nitrophenyl α-D-mannopyranoside]
reverse-phase HPLC of products (Mnn2 (AfMnn2)): fractions containing Mnn2 or Mnn5 revealed new products | reverse-phase HPLC of products (Mnn5 (AfMnn5)): fractions containing Mnn2 or Mnn5 revealed new products
